# According to PubChem BioAssay AID743234 (The Scripps Research Institute Molecular Screening Center, 2013):
# Calls of active or inactive are those of the source. No rule for the calls is given here.
# Target: Trace amine-associated receptor 1 (Homo sapiens) (UniProt Q96RJ0)
# Test: blockers of human TAAR1 signalling – cell-based, fluorescence, late-stage follow-up (AID 743234)
# Settings: TAAR1-expressing cells, fluorescence antagonist readout
# Sequence of Trace amine-associated receptor 1 (Homo sapiens) (Q96RJ0 whole entry, looked up): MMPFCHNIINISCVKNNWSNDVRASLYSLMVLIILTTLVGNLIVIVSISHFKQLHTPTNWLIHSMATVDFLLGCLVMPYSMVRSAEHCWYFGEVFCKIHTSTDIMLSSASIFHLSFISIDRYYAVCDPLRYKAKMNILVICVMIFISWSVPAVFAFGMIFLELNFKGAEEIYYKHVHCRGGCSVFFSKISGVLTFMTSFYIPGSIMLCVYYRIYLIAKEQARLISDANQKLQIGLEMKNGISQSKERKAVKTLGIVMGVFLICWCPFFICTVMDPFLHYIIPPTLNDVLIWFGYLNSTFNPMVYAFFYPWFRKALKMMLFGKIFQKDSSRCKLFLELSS
row,Compound,IC50
1,COc1cc(NC(=O)c2cc3ccccc3o2)c(OC)cc1Cl,> 29900 nM (inactive)
2,Cc1ccc(CSCC(=O)Nc2cc(S(=O)(=O)N3CCOCC3)ccc2OCC(F)(F)F)cc1,1600 nM

# Second part, the compound after the results:
row,IC50,Compound
1,1730 nM,Cc1cccc(C(C#N)c2nc3ccccc3nc2C(F)(F)F)c1 (stereo not given)
2,inactive,COc1cccc(-c2nn(-c3ccccc3)cc2C(=O)Nc2nccs2)c1
3,inactive,O=C(NCCn1cc(SCc2ccccc2F)c2ccccc21)c1c(F)cccc1F
